Assay [1] concerns the target T1, WRN [UniPro: Q14191 (WRN_HUMAN), N500-C946] (Homo sapiens (Human), UniProt Q14191). Description: WRN unwinding assay (FORKF DNA, fluorescence). Type of assay: biochemical. The settings on record: Table 14.
Assay [2] has as its target T1, WRN [UniPro: Q14191 (WRN_HUMAN), N500-C946]. Description: WRN ATPase assay (ADP-Glo). Type of assay: biochemical. Conditions: WRN enzymatic activity assay.

A value given as a limit tells only on which side of the number the result lay.

For orientation: IC50 means the midpoint of a concentration-inhibition curve.

T1 sequence (Q14191 500-946): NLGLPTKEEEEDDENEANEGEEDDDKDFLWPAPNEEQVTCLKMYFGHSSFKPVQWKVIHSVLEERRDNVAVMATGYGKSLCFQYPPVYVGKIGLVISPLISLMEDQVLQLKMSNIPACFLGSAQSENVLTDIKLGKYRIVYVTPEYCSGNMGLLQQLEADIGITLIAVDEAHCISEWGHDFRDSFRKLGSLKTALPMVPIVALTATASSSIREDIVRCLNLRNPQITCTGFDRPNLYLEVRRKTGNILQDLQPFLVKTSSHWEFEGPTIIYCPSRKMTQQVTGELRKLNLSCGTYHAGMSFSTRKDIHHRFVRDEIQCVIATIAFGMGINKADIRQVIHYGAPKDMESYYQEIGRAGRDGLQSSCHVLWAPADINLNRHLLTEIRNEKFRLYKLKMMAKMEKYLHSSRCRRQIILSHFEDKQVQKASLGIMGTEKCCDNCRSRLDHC

As to `CCc1c(N2CCN(C(=O)CNC(=O)c3ccccc3F)CC2)c(=O)n2nc(C3=CCOCC3)nc2n1CC(=O)Nc1cc(F)c(C(F)(F)F)cc1C` [Example 144, N-(2-(4-(2-(3,6-Dihydro-2H-pyran-4-yl)-5-ethyl-4-(2-((5-fluoro-2-methyl-4-(trifluoromethyl)phenyl)amino)-2-oxoethyl)-7-oxo-4,7-dihydro-[1,2,4]triazolo[1,5-a]pyrimidin-6-yl)piperazin-1-yl)-2-oxoethyl)-2-fluorobenzamide], the IC50 is less than 100 nM in assay [1] and 100 to 1000 nM in assay [2].

With `CCc1c(N2CCN(C(=O)c3cnn4cccc4c3O)CC2)c(=O)n2nc(C3=CCOCC3)nc2n1CC(=O)Nc1sc(C)cc1Br` [Example 146, N-(3-Bromo-5-methylthiophen-2-yl)-2-(2-(3,6-dihydro-2H-pyran-4-yl)-5-ethyl-6-(4-(4-hydroxypyrrolo[1,2-b]pyridazine-3-carbonyl)piperazin-1-yl)-7-oxo-[1,2,4]triazolo[1,5-a]pyrimidin-4(7H)-yl)acetamide], the half-inhibitory concentration (IC50) in assay [1] and in assay [2] was 100 to 1000 nM in each case.

In the case of `CCc1c(N2CCN(C(=O)CNC(=O)c3ccccc3F)CC2)c(=O)n2nc(C3=CCOCC3)nc2n1CC(=O)Nc1ccc(C(F)(F)F)cc1C` [Example 147, N-(2-(4-(2-(3,6-Dihydro-2H-pyran-4-yl)-5-ethyl-4-(2-((2-methyl-4-(trifluoromethyl)phenyl)amino)-2-oxoethyl)-7-oxo-4,7-dihydro-[1,2,4]triazolo[1,5-a]pyrimidin-6-yl)piperazin-1-yl)-2-oxoethyl)-2-fluorobenzamide], the half-maximal inhibitory concentration (IC50) in assay [1] and in assay [2] was less than 100 nM throughout.

With `CCc1c(N2CCN(C(=O)CNC(=O)c3ccccc3F)CC2)c(=O)n2nc(C3=CCOCC3)nc2n1CC(=O)Nc1ccc(C(F)(F)F)cc1` [Example 148, N-(2-(4-(2-(3,6-Dihydro-2H-pyran-4-yl)-5-ethyl-7-oxo-4-(2-oxo-2-((4-(trifluoromethyl)phenyl)amino)ethyl)-4,7-dihydro-[1,2,4]triazolo[1,5-a]pyrimidin-6-yl)piperazin-1-yl)-2-oxoethyl)-2-fluorobenzamide], the IC50 in assay [1] and in assay [2] was less than 100 nM each time.

Take `CCc1c(N2CCN(C(=O)CNC(=O)c3ccccc3F)CC2)c(=O)n2nc(C3=CCOCC3)nc2n1CC(=O)Nc1ccc(C(F)(F)F)cc1F` [Example 149, N-(2-(4-(2-(3,6-Dihydro-2H-pyran-4-yl)-5-ethyl-4-(2-((2-fluoro-4-(trifluoromethyl)phenyl)amino)-2-oxoethyl)-7-oxo-4,7-dihydro-[1,2,4]triazolo[1,5-a]pyrimidin-6-yl)piperazin-1-yl)-2-oxoethyl)-2-fluorobenzamide]: the IC50 in assay [1] and in assay [2] was less than 100 nM in each case.

With `CCc1c(N2CCN(C(=O)CNC(=O)c3ccccc3F)CC2)c(=O)n2nc(C3=CCOCC3)nc2n1CC(=O)Nc1ccc(F)cc1F` [Example 150, N-(2-(4-(4-(2-((2,4-Difluorophenyl)amino)-2-oxoethyl)-2-(3,6-dihydro-2H-pyran-4-yl)-5-ethyl-7-oxo-4,7-dihydro-[1,2,4]triazolo[1,5-a]pyrimidin-6-yl)piperazin-1-yl)-2-oxoethyl)-2-fluorobenzamide], the half-maximal inhibitory concentration (IC50) in assay [1] and in assay [2] was less than 100 nM throughout.

For the compound `CCc1c(N2CCN(C(=O)CNC(=O)c3ccccc3F)CC2)c(=O)n2nc(C3=CCOCC3)nc2n1CC(=O)Nc1sc(C)cc1Br` [Example 152, N-(2-(4-(4-(2-((3-bromo-5-methylthiophen-2-yl)amino)-2-oxoethyl)-2-(3,6-dihydro-2H-pyran-4-yl)-5-ethyl-7-oxo-4,7-dihydro-[1,2,4]triazolo[1,5-a]pyrimidin-6-yl)piperazin-1-yl)-2-oxoethyl)-2-fluorobenzamide], the results for the IC50 in assay [1] and in assay [2] were less than 100 nM and 100 to 1000 nM, respectively.

The values are drawn from patent US20260015358A1, “BICYCLIC DERIVATIVES, COMPOSITIONS AND USES THEREOF” (Danatlas Pharmaceuticals Co., Ltd., priority 2023, published 2026).
